Four compounds from ChEMBL document CHEMBL3044993, “Structural confirmation of 15-norlubiminol and 15-norepilubiminol, isolated from Solanum aethiopicum, by chemical conversion from lubimin and epilubimin, and their antifungal activity” (2001) can be followed below.

For assay [1], the system named is Fusarium oxysporum f. sp. melongenae. As to the kind of experiment: Antifungal activity against Fusarium oxysporum f. sp. melongenae assessed as spore germination rate at 100 ppm relative to untreated control. In kind it is functional.
In a further assay the test system is Verticillium dahliae. As to the kind of experiment: Antifungal activity against Verticillium dahliae assessed as spore germination rate at 100 ppm relative to untreated control. In kind it is functional.

Regarding `C=C(C)[C@@H]1CC[C@]2(C1)[C@H](C)C[C@H](O)C[C@H]2C=O` [EPILUBIMIN], the figures for the Activity (in assay [1]; in the assay on Verticillium dahliae) were 30% and 54%, respectively.
For `C=C(C)[C@@H]1CC[C@]2(C1)[C@H](C)C[C@H](O)C[C@H]2O` [15-NOREPILUBIMINOL], in that order: 113% and 57%.
As for `C=C(C)[C@@H]1CC[C@]2(C1)[C@H](C)C[C@H](O)C[C@@H]2O` [15-NORLIBIMINOL], the Activity in assay [1] is on record as 114%; with Verticillium dahliae, 52%.
With `C=C(C)[C@@H]1CC[C@]2(C1)[C@H](C)C[C@H](O)C[C@@H]2C=O` [LUBIMIN], the Activity came to 5% in assay [1] and 42% in the assay on Verticillium dahliae.
